From US11679168B2, “Caspase-3-triggered molecular self-assembling PET probes and uses thereof” (The Board of Trustees of the Leland Stanford Junior …, priority 2018, dated 2023)
Several values for one entry are separate records, joined by “and”; a condition that tells them apart may be missing. Equal values may be shown once. Read-outs that look alike come from different tables or passages of the source. Square brackets hold non-standard residues; d marks the D form. Peptide text beside a SMILES is read from it. * marks the point of attachment. NH(CH2)3O(2-CNpyrimidin5yl) = N#Cc1ncc(OCCCN*)cn1; 4Amb = NCc1ccc(C(=O)O)cc1; Pra = C#CC[CH](N)C(=O)O

What was measured:
[1] = Condensation kinetics of aromatic nitriles with L-cysteine (HPLC assay); format: physicochemical; conditions: for 2nd order rate constant k: aromatic nitrile with L-cysteine, PBS buffer, room temperature, HPLC assay; for second-order reaction rate: cyano-substituted aromatic with L-cysteine, phosphate-buffered saline (pH=7.4), FIG. 50A
Protocol: (§1) General Methods for Measuring Kinetics of Condensation Reactions Between Aromatic Nitriles and Aminothiols: The 2nd order rate constants for condensation reactions between aromatic nitriles and aminothiols were measured by using HPLC assays. To solutions of aromatic nitriles (100 μM) in phosphate buffered saline (PBS) (1×, pH=7.4) were added aminothiol (1.0 equiv.), TCEP (2.0 equiv.) and NaHCO3 (3 equiv.). The reaction solutions were kept at room temperature (23° C.) and monitored by HPLC at different time points. The conversion rates were calculated using the peak integrals of aromatic nitriles and the condensation products at 254 nm. Based on 2nd order reaction law, 1/[aromatic nitrile] was plotted against time and the slope of the linear regression result gives the 2nd order rate constant.

[2] = test system: PC3 tumors; assay: 18F-M-SNAT PET/CT imaging of PC3 xenograft mice; format: in vivo
Protocol: FIG. 47A illustrates images after 90 min programed PET/CT scan; n=4. About 150 μCi ^18F-M-SNAT were injected. White and gray indicate CT signal; a thresholding method was utilized to mask the relatively high uptake in liver, spleen, kideney and bladder.
PET/CT imaging of MetAP2 activity in tumor: Before applying fluorine-18 labeled M-SNAT (^18F-M-SNAT) for studies in vivo, the stability of non-radioactive ^19F-M-SNAT was investigated in mouse serum. The ability of ^18F-M-SNAT to indicate MetAP2 activity was assessed in male nude mice bearing subcutaneous PC3 tumors. When the tumors (right shoulder) were grown to 300-500 mm^3, PBS with or without TNP-470 were injected subcutaneously at 50 mg/kg at a remote position (lower left on the back) every other day for 4 days and then injected every day for 5 more days. The last injection was 4 h before imaging (FIG. 47A).
On the day of imaging, fluorine-18 was generated using a cyclotron and conjugated to M-SNAT in a rapid two-step chemical synthesis (FIG. 44). About 150 μCi (8.9 pmol)^18F-M-SNAT were injected to mice intravenously for a programed microPET/CT whole body scan through 90 min. […] About 1.3% was retained at 90 min. In comparison, the inhibitor-treated mice hold about 1% ID/cc through the whole scanning period (FIG. 47C). […] Tumors were resected 20 h after tracer injection for IHC staining ex vivo.

[3] = DLS of nanoaggregates of cyclized products; format: physicochemical; conditions: 10 μM, after raising pH from 4 to 7.4
Protocol: DLS Measurements: DLS measurements samples of I-VI were prepared by diluting fresh stock solutions of I-VI (20 mM in DMSO) to 10 μM solutions with HCl aqueous solution to adjust pH to 4. DLS measurements samples of cycl-I-VI were prepared by adding 0.5 μL of freshly prepared stock solutions of 1-VI (20 mM in DMSO), 6 μL saturated sodium bicarbonate solution into 993.5 μL H2O to adjust pH to 7.4.

[4] = Intramolecular cyclization kinetics (HPLC assay); format: physicochemical; conditions: PBS, pH 7.4, room temperature
Protocol: General Methods for Measuring Intramolecular Cyclization Kinetics: The 1st order rate constants of intramolecular cyclization of I-VI to produce cycl-I-VI, respectively were measured by HPLC assays adapted from the previously reported assay^38. To solutions of substrates I-VI in phosphate buffered saline (PBS) (1×, pH=7.4) were added a solution of TCEP (2.0 equiv.) in PBS (freshly prepared and the pH was adjusted to 7.4 by 1 N sodium hydroxide aqueous solution), affording a final concentration of 100 μM for the substrates. The mixture was kept at room temperature (23° C.) and monitored by HPLC at different time points. The concentration of remaining starting material was calculated using the peak integrals of the starting material at 254 nm. Based on first-order reaction law, In([At]/[A0]) was plotted against time and the slope of the linear regression result gives the first-order rate constant.

[5] = Condensation kinetics of aminothiols with CBT (HPLC assay); format: physicochemical; conditions: for 2nd order rate constant k: aminothiol with CBT, PBS buffer, room temperature, HPLC assay; for second-order reaction rate: substituted cysteine analogues with CBT, FIG. 50B
Protocol: as §1

[6] = test system: MetAP2 activity in 22Rv1 cells; assay: Imaging MetAP2 activity in 22Rv1 cells (post click Cy5 labeling); format: cell-based, human; conditions: 22Rv1, TNP-470 2 μM
[7] = test system: MetAP2 activity in PC3 cells; assay: Imaging MetAP2 activity in PC3 cells (post click Cy5 labeling); format: cell-based, human
Protocol: FIG. 45B illustrates fluorescence microscopy imaging of cy5 post-labeled M-SNAT (20 μM) with or without TNP470 and M-SNAT-ctrl (20 μM) in PC3 cells. Permealized cells were also stained with DAPI (blue).
Imaging MetAP2 activity in cancer cells: Cell uptake and MetAP2 specific activation of M-SNAT and M-SNAT-ctrl were evaluated in PC3 and DU145 cells with the MetAP2-specific inhibitor TNP-470. Post click fluorescent labeling was performed as illustrated in FIG. 45A to locate the nanoaggregation in cells and avoid the possible interference with probe uptake by pre-conjugating a large Cy5 fluorophore.

[8] = test system: β-galactosidase activity in 9L/LacZ cells
Protocol: FIG. 33 illustrates quantification of fluorescent intensity in the flow cytometry data in FIG. 3G.
Confocal Microscopy Imaging of 9L/LacZ Cell With B-SNAF2/4-BDP: Cells were incubated with B-SNAF2-BDP or B-SNAF4-BDP (2 μM) at 37° C. for 2 hours and then were then washed three times with cold PBS. The cells were fixed with 4% paraformaldehyde and stained with 2 μM Hoechst 33258 (Sigma) for 10 min. The cells were washed three times with PBS mounted with 2 μM Hoechst 33258 (Sigma) at 37° C. for 20 min. Cells were then fixed and imaged using a confocal laser scanning microscope (Zeiss LSM710; Zeiss America) with DAPI and DsRed filters. The images were processed using the ImageJ software package (National Institutes of Health).

[9] = molecular target: recombinant human MetAP2 (Homo sapiens, UniProt P50579); assay: Macrocyclization and nanoaggregation of M-SNAT with recombinant MetAP2; conditions: 10 μM, MetAP2 7.5 μg/ml, TCEP, 24 h
recombinant human MetAP2, sequence (P50579 whole entry): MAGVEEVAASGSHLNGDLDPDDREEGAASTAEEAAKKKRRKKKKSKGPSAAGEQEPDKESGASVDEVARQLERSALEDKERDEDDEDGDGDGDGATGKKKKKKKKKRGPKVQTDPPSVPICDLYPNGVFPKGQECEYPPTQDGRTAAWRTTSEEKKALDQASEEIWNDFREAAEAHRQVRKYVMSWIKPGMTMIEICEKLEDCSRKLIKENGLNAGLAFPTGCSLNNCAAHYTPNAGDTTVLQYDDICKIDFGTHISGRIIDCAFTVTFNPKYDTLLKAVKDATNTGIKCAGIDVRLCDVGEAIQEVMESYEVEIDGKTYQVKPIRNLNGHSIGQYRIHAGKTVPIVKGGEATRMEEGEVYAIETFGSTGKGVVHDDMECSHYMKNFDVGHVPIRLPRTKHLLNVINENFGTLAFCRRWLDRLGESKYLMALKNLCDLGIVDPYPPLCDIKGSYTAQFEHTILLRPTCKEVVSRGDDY

[10] = test system: MetAP2 activity in DU145 cells; assay: Imaging MetAP2 activity in DU145 cells (post click Cy5 labeling); format: cell-based, human; conditions: DU145, 20 μM, 24 h
Protocol: Imaging MetAP2 activity in cancer cells: […] Post click fluorescent labeling was performed as illustrated in FIG. 45A to locate the nanoaggregation in cells and avoid the possible interference with probe uptake by pre-conjugating a large Cy5 fluorophore.

[11] = cited from earlier work; for 2nd order rate constant k: aromatic nitrile with L-cysteine, reported in Reference 13

N#Cc1ncc(Br)cn1 [Entry 4, 5-bromo-2-pyrimidinecarbonitrile]
2nd order rate constant k [1]: 2.21 ± 0.037 M⁻¹ s⁻¹ | 2nd order rate constant k ([1]; listed as 5-bromo-2-pyrimidinecarbonitrile): 2.21 M⁻¹ s⁻¹ | second-order reaction rate [1]: 0.58 M⁻¹ s⁻¹

CCSSCC(NC(=O)C(N)CCSC)C(=O)NCC(=O)NC(Cc1cn(CCOCCOCCOCC[18F])nn1)C(=O)NCc1ccc(C(=O)NCCCOc2cnc(C#N)nc2)cc1 (centres unmarked) [^18F-M-SNAT]
tumor retention ([2]; PBS-treated PC3 tumors, at 90 min): About 1.3% | tumor uptake ([2]; PBS-treated PC3 tumors, within 10 min): 1.6 % ID/cc | clearance ([2]; PC3 xenograft mice, 90 min PET/CT): fast clearance by kidney to bladder | tumor uptake ([2]; TNP-470 (inhibitor)-treated mice, whole scanning period): about 1 % ID/cc

CC(C)(C)OC(=O)NCCCOc1cnc(C#N)nc1 [Entry 6]
2nd order rate constant k [1]: 0.01 ± 0.0017 M⁻¹ s⁻¹ | 2nd order rate constant k ([1]; listed as alkoxy-substituted 2-pyrimidinecarbonitrile): 0.01 M⁻¹ s⁻¹

O=C1NCCCOc2ccc3nc(ccc3c2)C2=NC(CS2)C(=O)NCc2ccc1cc2 (centres unmarked) [cycl-I]
diameter of nanoaggregates (DLS) [3]: around 80 nm

C#CCC1NC(=O)CNC(=O)C2(C)CSC(=N2)c2ncc(cn2)OCCCNC(=O)c2ccc(cc2)CNC1=O (centres unmarked) [cycl-VI]
1st order rate constant of intramolecular cyclization [4]: 2.7±0.1×10^−3 s^−1

CC(C)(S)[C@@H](N)C(=O)O [Entry 7, D-penicillamine]
2nd order rate constant k [5]: 0.029 ± 0.003 M⁻¹ s⁻¹ | 2nd order rate constant k ([5]; listed as D-penicillamine): 0.029 M⁻¹ s⁻¹ | second-order reaction rate [5]: 0.06 M⁻¹ s⁻¹

C#CCC(NC(=O)C(N)CS)C(=O)NCc1ccc(C(=O)NCCCOc2ccc3nc(C#N)ccc3c2)cc1 (centres unmarked) [Compound II]
1st order rate constant of intramolecular cyclization [4]: 1.2×10^−3 s^−1 and 1.2±0.04×10^−3 s^−1 | diameter of nanoaggregates (DLS) [3]: 80 nm

CO[C@@H]1[C@H](OC(=O)NC(=O)CCl)CC[C@]2(CO2)[C@H]1[C@@]1(C)O[C@@H]1CC=C(C)C [TNP-470, reference compound]
effect on M-SNAT fluorescence [6]: significantly reduced | tumor growth versus PBS-treated group ([2]; 50 mg/kg s.c., PC3 tumors): no significant difference | effect on M-SNAT fluorescence ([7]; PC3, TNP-470 2 μM): significantly reduced | inhibition of M-SNAT signal (flow cytometry) ([7]; PC3 cells treated, permealized and post-labeled): 22.7%

N#Cc1ncccn1 [Entry 5, 2-pyrimidinecarbonitrile]
2nd order rate constant k [1]: 0.99 ± 0.17 M⁻¹ s⁻¹ | 2nd order rate constant k ([1]; listed as 2-pyrimidinecarbonitrile): 0.99 M⁻¹ s⁻¹ | second-order reaction rate [1]: 0.17 M⁻¹ s⁻¹

C#CCC1NC(=O)CCNC(=O)C2CSC(=N2)c2ncc(cn2)OCCCNC(=O)c2ccc(cc2)CNC1=O (centres unmarked) [cycl-V]
1st order rate constant of intramolecular cyclization [4]: 8.0±0.6×10^−4 s^−1

C#CCC1NC(=O)C2CSC(=N2)c2ccc3cc(ccc3n2)OCCCNC(=O)c2ccc(cc2)CNC1=O (centres unmarked) [cycl-II]
diameter of nanoaggregates (DLS) [3]: around 80 nm

CCSSCC(NC(=O)OCc1ccc(OC2O[C@H](CO)[C@H](O)[C@H](O)C2O)cc1)C(=O)NCC(=O)NC(CCCCNC(=O)CCc1ccc2n1[B-](F)(F)[N+]1=C(C)C=C(C)C1=C2)C(=O)NCc1ccc(C(=O)NCCCOc2cnc(C#N)nc2)cc1 (some centres unmarked) [B-SNAF4-BDP]
retention of fluorescent signal, 9L/LacZ over 9L/Luc ([8]; 2 μM, 37° C., 2 hours): 2.5 fold | retention of fluorescent signal, 9L/LacZ versus 9L/Luc ([8]; fluorescent imaging): significantly higher retention

C#CCC(NC(=O)CNC(=O)C(CSC)NC(=O)C(N)CCSC)C(=O)NCc1ccc(C(=O)NCCCOc2cnc(C#N)nc2)cc1 (centres unmarked) [M-SNAT-ctrl] (H-MC(Me)G[Pra][4Amb]-{NH(CH2)3O(2-CNpyrimidin5yl)}; configuration not given here)
macrocyclization (HPLC, mass spectrometry) [9]: could not cyclize | Cy5 post-labeled fluorescence in cells ([7]; PC3, 20 μM, 24 h): not | Cy5 post-labeled fluorescence in cells [10]: not

C#CCC1NC(=O)CNC(=O)C2CSC(=N2)c2ncc(cn2)OCCCNC(=O)c2ccc(cc2)CNC1=O (centres unmarked) [cycl-IV]
1st order rate constant of intramolecular cyclization [4]: 2.1±0.07×10^−3 s^−1

N#Cc1ccccn1 [Entry 3, 2-pyridinecarbonitrile]
2nd order rate constant k [11]: No Rxn^a | 2nd order rate constant k ([11]; listed as 2-pyridinecarbonitrile): no reaction was observed

N#Cc1ccc2cc(OCCCNC(=O)c3ccc(CNC(=O)C(N)CS)cc3)ccc2n1 (centres unmarked) [Compound I]
diameter of nanoaggregates (DLS) [3]: 80 nm

Cc1csc(C#N)n1 [4-methyl-2-thiazolecarbonitrile]
second-order reaction rate ([11]; with cysteine, Ye et al. (2011)): 0.7 M⁻¹ s⁻¹

C[C@](N)(CS)C(=O)O [Entry 8, 2-methyl-L-cysteine]
2nd order rate constant k [5]: 5.35 ± 0.8 M⁻¹ s⁻¹ | 2nd order rate constant k ([5]; listed as 2-methyl-L-cysteine): 5.35 M⁻¹ s⁻¹ | second-order reaction rate [5]: 5.7 M⁻¹ s⁻¹
